Laboratory results as given in US11458138B2 (Novartis AG, priority 2017, dated 2022).

Experiments:
[1] = biological target: Human LATS1 kinase domain protein (Homo sapiens (Human), UniProt O95835); test: LATS1 Biochemical Caliper Assay (Compound Examples 291-335); conditions: Caliper EZ Reader
Method: The LATS1 biochemical Caliper assay was performed as following.
Human LATS1 kinase domain protein was purchased from Carnabio (catalogue number 01-123; lot 15CBS-0098D). Human LATS1, catalytic domain [589-1130(end) amino acids of accession number NP_004681.1] was co-expressed as N-terminal GST-fusion protein (90 kDa) with human His-tagged MOBKL1A [1-216(end) amino acids of accession number NP_775739.1] using baculovirus expression system. GST-LATS1 was purified by using glutathione sepharose chromatography. The substrate (Fluo-SGKtide; Peptide for LATS1; lot BS-41067) has the following sequence: 5-Fluo-Nva-[…]-amide (SEQ ID NO: 27) x TFA and was purchased from Biosyntan.
The reaction is performed in reaction buffer containing 50 mM Hepes pH 7,5; 0.02% Tween20; 0.02% BSA; 1 mM DTT; 10 uM Na3VO4 and 10 mM beta-Glycerolphosphat and fresh added 1 mM MgCl2 and qsp H2O.
The substrate solution (2× conc.) in Reaction Buffer contains 300 μM ATP and 4 μM Fluo-SGKtide.
The kinase solution (2× conc.) in Reaction Buffer contains 20 nM LATS1 kinase. 4.5 μL of 2× conc. Kinase solution, 50 nL of 1.8 mM compounds and 4.5 μL of substrate solution were added into 384-well plates black small volume from Greiner and incubated at 32° C. for 1 hour. 15 μL of stop buffer containing 100 mM Hepes pH 7,5; 5% DMSO; 0.1% Coating reagent; 10 mM EDTA and 0.02% Brij35 and qsp H2O to each well to terminate the reaction.
Substrates and products were electrophoretically separated using the microfluidic-based Caliper EZ Reader System (Caliper Life Sciences) using a 12 sipper chip (cat 760404). The separation takes place in Coating Buffer (idem Stop buffer) and containing 0.1% Coating reagent CR3 and 0.5% coating reagent CR8 (Perkin Elmer).
Plates were read using a LED with an excitation at 488 nm and a detection at 520 nm to 5 quantify the fluorescence intensity.

LATS1 = LATS1 (Homo sapiens (Human), UniProt O95835); test: LATS1 biochemical assay (Table 1A, Compound Examples 1-290; method in the earlier part)
Sequence of LATS1 (O95835 whole entry, looked up): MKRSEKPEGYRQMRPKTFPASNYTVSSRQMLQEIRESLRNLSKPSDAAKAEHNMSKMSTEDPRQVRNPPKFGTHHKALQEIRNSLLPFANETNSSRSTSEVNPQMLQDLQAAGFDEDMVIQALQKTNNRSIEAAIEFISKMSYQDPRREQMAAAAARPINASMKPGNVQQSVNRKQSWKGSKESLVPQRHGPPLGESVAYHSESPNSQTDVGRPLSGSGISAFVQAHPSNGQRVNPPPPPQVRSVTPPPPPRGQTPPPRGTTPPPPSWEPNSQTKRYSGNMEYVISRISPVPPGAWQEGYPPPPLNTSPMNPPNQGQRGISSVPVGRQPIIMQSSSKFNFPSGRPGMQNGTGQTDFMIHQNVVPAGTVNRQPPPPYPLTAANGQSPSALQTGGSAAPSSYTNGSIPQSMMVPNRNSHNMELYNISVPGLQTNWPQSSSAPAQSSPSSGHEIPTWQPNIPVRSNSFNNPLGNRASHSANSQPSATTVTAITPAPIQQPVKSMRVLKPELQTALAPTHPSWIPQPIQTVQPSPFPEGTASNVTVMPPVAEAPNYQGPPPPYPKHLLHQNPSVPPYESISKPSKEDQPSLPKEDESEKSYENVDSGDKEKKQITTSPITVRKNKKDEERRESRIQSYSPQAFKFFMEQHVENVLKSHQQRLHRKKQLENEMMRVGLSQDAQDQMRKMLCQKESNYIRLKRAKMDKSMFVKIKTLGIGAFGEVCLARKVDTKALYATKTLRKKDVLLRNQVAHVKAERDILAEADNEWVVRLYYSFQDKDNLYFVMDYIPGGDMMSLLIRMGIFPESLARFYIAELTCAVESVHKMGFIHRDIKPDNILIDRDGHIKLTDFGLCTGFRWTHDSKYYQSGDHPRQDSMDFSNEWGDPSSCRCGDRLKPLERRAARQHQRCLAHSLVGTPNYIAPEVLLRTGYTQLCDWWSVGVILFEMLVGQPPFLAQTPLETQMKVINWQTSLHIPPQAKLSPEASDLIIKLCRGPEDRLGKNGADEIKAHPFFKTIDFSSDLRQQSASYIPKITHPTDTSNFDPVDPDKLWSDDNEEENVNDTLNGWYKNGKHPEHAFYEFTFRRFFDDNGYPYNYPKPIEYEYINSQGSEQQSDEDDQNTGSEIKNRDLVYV
Sequence of LATS1 (Q7L9L4 whole entry partner, looked up): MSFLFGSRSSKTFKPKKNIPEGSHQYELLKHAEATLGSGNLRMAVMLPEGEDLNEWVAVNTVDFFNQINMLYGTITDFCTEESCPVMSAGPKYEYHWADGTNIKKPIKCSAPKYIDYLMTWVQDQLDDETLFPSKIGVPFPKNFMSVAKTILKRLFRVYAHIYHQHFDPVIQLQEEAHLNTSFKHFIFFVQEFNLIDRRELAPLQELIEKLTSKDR

[2] = system: Phospho-YAP (Ser127) in JHH-5 cells; test: pYAP HTRF Assay (JHH-5 cells); type: cell-based; conditions: 2 hours
Outline: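 Phospho-YAP read by HTRF (665 nm/620 nm ×10000) in lysates after overnight 18 h antibody incubation at room temperature. Compound treatment lasted 2 h at 37 °C, on JHH-5 cells plated 24 h earlier at 24000 per well in William's E medium with 10% FBS.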

[3] = system: YAP nuclear translocation in HaCaT cells; test: YAP Translocation Assay (HaCaT Cells); type: cell-based, human; conditions: Homo sapiens, 24 hours
Outline: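 HaCaT cells (20,000/well) in DMEM + 10% FBS were plated overnight at 37° C, then exposed to compound for 24 h at 37° C. Cells were fixed with PFA, permeabilized with 0.1% Triton/1.5% BSA and imaged by high-content imaging.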

[4] = system: Phospho-YAP (SER127) in HaCaT cells; test: pYAP HTRF Assay (HaCaT Cells); type: cell-based, human; conditions: Homo sapiens, 2 hours
Outline: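 Phospho-YAP (Ser127) was measured by HTRF (665 nm/620 nm ratio) in HaCaT cells. Cells were grown 48 hours at 37° C at 5500 cells/well, exposed to compound for 2 hours, and incubated with detection reagents for 20 hrs at room temperature.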

Sequence of Human LATS1 kinase domain protein (O95835 whole entry, looked up, the tested form may be a part): as the sequence (O95835 whole entry, looked up) above
Sequence of Human LATS1 kinase domain protein (Q7L9L4 whole entry partner, looked up, the tested form may be a part): as the sequence (Q7L9L4 whole entry partner, looked up) above

SMILES: CC(C)(CCNC(=O)OC(C)(C)C)Nc1nc(-c2ccncc2)nc2cnccc12 [Example 328, tert-butyl (3-methyl-3-((2-(pyridin-4-yl)pyrido[3,4-d]pyrimidin-4-yl)amino)butyl)carbamate]
- IC50 [1]: 18.9 nM

SMILES: CC1CCCCN1c1cc(-c2ccncc2)nc2cnccc12 (stereo not shown) [Example 293, 4-(2-methylpiperidin-1-yl)-2-(pyridin-4-yl)-1,7-naphthyridine]
- IC50 [1]: 16 nM

SMILES: CN(C)CC(C)(C)CNc1nc(-c2ccncc2)nc2cnccc12 [Example 323, N^1,N^1,2,2-tetramethyl-N^3-(2-(pyridin-4-yl)pyrido[3,4-d]pyrimidin-4-yl)propane-1,3-diamine]
- IC50 [1]: 4.5 nM

SMILES: CN(C)C(C)(C)CNc1cc(-c2ccncc2)nc2cnccc12 [Example 302, N^2,N^2,2-trimethyl-N^1-(2-(pyridin-4-yl)-1,7-naphthyridin-4-yl)propane-1,2-diamine]
- IC50 [1]: 59.5 nM

SMILES: CC(C)(C)OC(=O)NCCNc1nc(-c2ccncc2)nc2cnccc12 [Example 311, tert-butyl (2-((2-(pyridin-4-yl)pyrido[3,4-d]pyrimidin-4-yl)amino)ethyl)carbamate]
- IC50 [1]: 1030 nM

SMILES: c1cc(-c2cc(N3CCNCC3)c3ccncc3n2)ccn1 [Example 292, 4-(piperazin-1-yl)-2-(pyridin-4-yl)-1,7-naphthyridine]
- IC50 [1]: 43.3 nM

SMILES: FC(F)(F)[C@@H]1CN(c2nc(-c3ccncc3)nc3cnccc23)CCN1 [Example 321, (S)-2-(pyridin-4-yl)-4-(3-(trifluoromethyl)piperazin-1-yl)pyrido[3,4-d]pyrimidine]
- IC50 [1]: 3.8 nM

SMILES: CC(C)(CNC(=O)OC(C)(C)C)CNc1nc(-c2ccncc2)nc2cnccc12 [Example 316, tert-butyl (2,2-dimethyl-3-((2-(pyridin-4-yl)pyrido[3,4-d]pyrimidin-4-yl)amino)propyl)carbamate]
- IC50 [1]: 42.5 nM

SMILES: c1cc(-c2cc(NC3COC3)c3ccncc3n2)ccn1 [Example 296, N-(oxetan-3-yl)-2-(pyridin-4-yl)-1,7-naphthyridin-4-amine]
- IC50 [1]: 209 nM

SMILES: CN(C)CCC(C)(C)Nc1nc(-c2ccnc(N)c2)nc2cnccc12 [Example 334, N^3-(2-(2-aminopyridin-4-yl)pyrido[3,4-d]pyrimidin-4-yl)-N^1,N^1,3-trimethylbutane-1,3-diamine]
- IC50 [1]: 6.1 nM

SMILES: CN(C)C(=O)C(C)(C)Nc1nc(-c2ccncc2)nc2cnccc12 [Example 314, N,N,2-trimethyl-2-((2-(pyridin-4-yl)pyrido[3,4-d]pyrimidin-4-yl)amino)propanamide]
- IC50 [1]: 467 nM

SMILES: CCN(CC)CCC(C)(C)Nc1nc(-c2ccncc2)nc2cnccc12 [Example 330, N,N-diethyl-3-methyl-N^3-(2-(pyridin-4-yl)pyrido[3,4-d]pyrimidin-4-yl)butane-1,3-diamine]
- IC50 [1]: 3.1 nM

SMILES: CC(C)(CNc1nc(-c2ccncc2)nc2cnccc12)NC(=O)OC(C)(C)C [Example 310, tert-butyl (2-methyl-1-((2-(pyridin-4-yl)pyrido[3,4-d]pyrimidin-4-yl)amino)propan-2-yl)carbamate]
- IC50 [1]: 164 nM

SMILES: FC(F)(F)[C@H]1CN(c2cc(-c3ccncc3)nc3cnccc23)CCN1 [Example 305, (R)-2-(pyridin-4-yl)-4-(3-(trifluoromethyl)piperazin-1-yl)-1,7-naphthyridine]
- IC50 [1]: 663 nM

SMILES: CN1CCN(c2cc(-c3ccncc3)nc3cnccc23)CC1 [Example 291, 4-(4-methylpiperazin-1-yl)-2-(pyridin-4-yl)-1,7-naphthyridine]
- IC50 [1]: 457 nM

SMILES: CC1(C)CN(c2cc(-c3ccncc3)nc3cnccc23)CCO1 [Example 299, 2,2-dimethyl-4-(2-(pyridin-4-yl)-1,7-naphthyridin-4-yl)morpholine]
- IC50 [1]: 97.1 nM

SMILES: CC(C)(C)Nc1nc(-c2c[nH]nc2C(F)(F)F)nc2cnccc12 [Example 115, N-tert-butyl-2-[3-(trifluoromethyl)-1H-pyrazol-4-yl]pyrido[3,4-d]pyrimidin-4-amine]
- IC50 (LATS1): 2 nM
- IC50 [2]: 3400 nM
- EC50 [3]: 1660 nM
- IC50 [4]: 1050 nM

SMILES: CCN(CC)c1nc(-c2ccncc2)nc2cnccc12 [Example 2]
- IC50 (LATS1): 1 nM
- IC50 [2]: > 10000 nM
- EC50 [3]: 584 nM
- IC50 [4]: 67 nM

SMILES: CC(C)(C)Nc1nc(-c2ccncc2)nc2cncc(Cl)c12 [Example 251, N-(tert-butyl)-5-chloro-2-(pyridin-4-yl)pyrido[3,4-d]pyrimidin-4-amine]
- IC50 (LATS1): 4 nM
- IC50 [2]: 1500 nM
- EC50 [3]: 10900 nM
- IC50 [4]: 1960 nM

SMILES: COCCC(C)(C)Nc1cc(-c2ccncc2)nc2cnccc12 [Example 254, N-(4-methoxy-2-methylbutan-2-yl)-2-(pyridin-4-yl)-1,7-naphthyridin-4-amine]
- IC50 (LATS1): 5 nM
- IC50 [2]: 1300 nM
- EC50 [3]: 4630 nM
- IC50 [4]: 2910 nM

SMILES: CC(C)OCC(C)(C)Nc1cc(-c2ccncc2)nc2cnccc12 [Example 255, N-[2-methyl-1-(propan-2-yloxy)propan-2-yl]-2-(pyridin-4-yl)-1,7-naphthyridin-4-amine]
- IC50 (LATS1): 8 nM
- IC50 [2]: 7100 nM
- EC50 [3]: 5390 nM
- IC50 [4]: 3180 nM

SMILES: C[C@](O)(CNc1cc(-c2ccncc2)nc2cnccc12)C(F)(F)F [Example 327, (S)-1,1,1-trifluoro-2-methyl-3-((2-(pyridin-4-yl)-1,7-naphthyridin-4-yl)amino)propan-2-ol]
- IC50 [1]: 125 nM

SMILES: FC(F)(F)C1(Nc2nc(-c3ccncc3)nc3cnccc23)CC1 [Example 64, 2-(pyridin-4-yl)-N-[1-(trifluoromethyl)cyclopropyl]pyrido[3,4-d]pyrimidin-4-amine]
- IC50 (LATS1): 1 nM
- IC50 [2]: 2100 nM
- EC50 [3]: 479 nM
- IC50 [4]: 63 nM

SMILES: CCN(c1nc(-c2ccncc2)nc2cnccc12)C(C)C [Example 3, N-ethyl-N-(propan-2-yl)-2-(pyridin-4-yl)pyrido[3,4-d]pyrimidin-4-amine]
- IC50 (LATS1): 1 nM
- IC50 [2]: 1000 nM
- EC50 [3]: 641 nM
- IC50 [4]: 853 nM

SMILES: CC(C)(C)Nc1nc(-c2nonc2N)nc2cnccc12 [Example 324, 4-(4-(tert-butylamino)pyrido[3,4-d]pyrimidin-2-yl)-1,2,5-oxadiazol-3-amine]
- IC50 [1]: 10.4 nM

SMILES: Cc1cnccc1-c1nc(NC(C)(C)C)c2ccncc2n1 [Example 117, N-tert-butyl-2-(3-methylpyridin-4-yl)pyrido[3,4-d]pyrimidin-4-amine]
- IC50 (LATS1): 4 nM
- IC50 [2]: > 10000 nM
- EC50 [3]: 4470 nM
- IC50 [4]: 2310 nM

SMILES: CC(C)(C)Nc1nc(-c2ccncc2Cl)nc2cnccc12 [Example 116, N-tert-butyl-2-(3-chloropyridin-4-yl)pyrido[3,4-d]pyrimidin-4-amine]
- IC50 (LATS1): 3 nM
- IC50 [2]: 2200 nM
- EC50 [3]: 2180 nM
- IC50 [4]: 782 nM

SMILES: CC(C)(C)Nc1cc(-c2ccncc2F)nc2cnccc12 [Example 280, N-tert-butyl-2-(3-fluoropyridin-4-yl)-1,7-naphthyridin-4-amine]
- IC50 (LATS1): 3 nM
- IC50 [2]: 3800 nM
- EC50 [3]: 2730 nM
- IC50 [4]: 476 nM

SMILES: CN(C)CCC(C)(C)Nc1nc(-c2c[nH]nc2C(F)(F)F)nc2cnccc12 [Example 333, N^1,N,3-trimethyl-N^3-(2-(3-(trifluoromethyl)-1H-pyrazol-4-yl)pyrido[3,4-d]pyrimidin-4-yl)butane-1,3-diamine]
- IC50 [1]: 2.3 nM

SMILES: CC(Nc1nc(-c2ccncc2)nc2cnccc12)(C(=O)O)C(F)(F)F (stereo not shown) [Example 84, 3,3,3-trifluoro-2-methyl-2-{[2-(pyridin-4-yl)pyrido[3,4-d]pyrimidin-4-yl]amino}propanoic acid]
- IC50 (LATS1): 21 nM
- IC50 [2]: > 10000 nM
- EC50 [3]: > 20000 nM
- IC50 [4]: 65200 nM

SMILES: Cc1cnccc1-c1nc(NC(C)(C)C(F)(F)F)c2ccncc2n1 [Example 157, 2-(3-methylpyridin-4-yl)-N-(1,1,1-trifluoro-2-methylpropan-2-yl)pyrido[3,4-d]pyrimidin-4-amine]
- IC50 (LATS1): 6 nM
- IC50 [2]: 9200 nM
- EC50 [3]: 3780 nM
- IC50 [4]: 4050 nM
